Data published in patent US8975234B2, “Anti-bacterial infection, inflammation, and leukemia composition and use thereof” (priority 2011, dated 2015).

What was measured:
MRSA 18271 = assay: Minimum inhibitory concentration (broth microdilution) and FIC index; format: cell-based, Staphylococcus aureus; conditions: Staphylococcus aureus, MRSA, read-out: Minimum inhibitory concentration
Description: (§1) A serial of twofold dilution of the tested antibiotics (oxacillin, erythromycin, ampicillin, kanamycin, levofoxacin, vancomycin and doxycycline) was perform by Broth microdilution method to a final concentration of 2-512 μg/mL. The bacterial overnight culture was collected and re-suspended in the Muller-Hilton (M-H) broth. An aliquot of cell suspension (OD600=0.1) was prepared. The bacterial suspensions were plated in 96-well plate and incubated with test antibiotics at 37° C. in a 5% CO2 incubator (Table 1 to Table 4).
(§2) The […], […] and antagonism between two drugs was evaluated by the following formula:
(§3) [formula] The criteria of fractional inhibitory concentration index: […]

MRSA 18631 = assay: as above; format: cell-based, Staphylococcus aureus; conditions: Staphylococcus aureus, MRSA, read-out: Minimum inhibitory concentration
Description: as §1, §2, §3

MRSA 19615 = assay: as above; format: cell-based, Staphylococcus aureus; conditions: Staphylococcus aureus, MRSA, read-out: Minimum inhibitory concentration
Description: as §1, §2, §3

DPPH scavenging assay = assay: DPPH scavenging assay
Description: Test reagents, natural extracts and Vitamin C (ascorbic acid) were dissolved in methanol to make a stock solution 10×. Vitamin C was used as the positive control. 120 μM DPPH solution was prepared. Taken 20 μL of stock reagents, natural extracts and Vitamin C on a 96-well microplate, and methanol was added to make up to the total volume of 100 μL. Control was 100 μL methanol. Each sample was mixed with 100 μL DPPH solution and incubated in the dark for 40 minutes. DPPH level of each well was evaluated by detecting the optical density of each well at 517 nm and the results were shown in Table 5.

[1] = test system: mouse macrophage cell line RAW264.7; assay: Cell viability assay (alamarBlue); format: cell-based; conditions: 50 μg/mL or lower doses, 24 hours
Description: AlamarBlue reagent was used to assess cell viability. RAW264.7 cells (2×10^4 in 200 μL of medium) were seeded on the 96-well plate. After overnight incubation, cells were serum starved in DMEM medium containing 2% Fetal Bovine Serum (FBS) for 3 hours. There were several groups: cells without DMSO or Tellimagrandin II treatment (controls); cell treated with DMSO (control); cells treated with Tellimagrandin II with different concentrations (10, 25, 50, 75 and 100 μM, diluted in DMSO) (test groups). Each group was determined in duplicate.
After 24 hours, the cell medium was removed and discarded, and the cells were resuspended with 180 μL of fresh culture medium. Each cell suspension was added with 20 μL alamarBlue. The plate was then placed in incubator for another 4 hours. After incubation, the absorbance of the medium was measured at 570 and 600 nm, and cell viability was analyzed by using the following formula:
[formula] • O1: molar extinction coefficient (E) of oxidized alamarBlue at 570 nm • O2: molar extinction coefficient (E) of oxidized alamarBlue at 600 nm • A1: absorbance of test wells at 570 nm • A2: absorbance of test wells at 600 nm • P1: absorbance of positive growth control well at 570 nm • P2: absorbance of positive growth control well at 600 nm

[2] = test system: LPS-induced PGE2 in RAW264.7 cells; assay: Prostaglandin E2 (PGE2) assay; format: cell-based, mouse; conditions: 25 or 50 μM added 30 minutes before LPS
Description: One milliliter (1 mL) of murine macrophage cell line RAW264.7 (4×10^5 cells/mL) was seeded on a 12-well plate overnight. After overnight incubation, cells were serum starved in DMEM medium containing 2% Fetal Bovine Serum (FBS) for 3 hours. Then, Tellimagrandin II was added so that final concentrations of 10, 25 and 50 μM were obtained. Thus, after a 30-min incubation, murine macrophage cells were treated with LPS for 16 h and the cell culture supernatant was collected. Cell-free supernatants were diluted and PGE 2 in culture supernatants were detected by using a PGE2 assay kit (R&D system). The purpose of the study was to evaluate the LPS-induced PGE2 expression by co-treating with Tellimagrandin II.

K-562 cells = assay: Western blotting of apoptosis and cell cycle proteins; format: cell-based, human; conditions: 40 and 50 μM, 48 hours
Description: A total of 3 mL cell solution at the concentration of 1×10^6K-562 cells per mL was cultured in 6 cm cell culture dish in an incubator supplied with 5% CO2 at 37° C. for 30 minutes so that cells could adapt to the environment. Tellimagrandin II solutions of different concentrations were added by order so that the final concentrations are 0, 40 and 50 μM, respectively. The solution was placed in incubator with 5% CO2 at 37° C. for 48 hours. After incubation, it was centrifuged at 1,000 rpm at 4° C. for 5 minutes and rinsed by PBS once. RIPA buffer solution containing protease inhibitors was added to decompose the cells.
The solution was rapidly frozen with liquid nitrogen and unfrozen for three times to ensure that cells had been broken by the physical damages. The solution was centrifuged at 15,000 rpm at 4° C. for 30 minutes; the supernatant containing total cell protein was collected. Protein concentrations were determined by BCA protein assay. Finally, equal amounts of protein samples (40 μg) were boiled in 1× loading buffer for 3 minutes to decompose protein into primary structure for further protein gel electrophoresis (or stored at −80° C.).
SDS-PAGE 10% or 12% was selected by the desired protein molecular weight in the protein gel electrophoresis (150 V, 17 mA for 2 hour and 5 minutes). The protein was transferred from the gel to PVDF membrane using wet transfer procedure (100 V, 300 mA for 30 minutes). The membrane was blocked at room temperature for one hour in Tris-buffered saline-Tween (TBS-T) buffer solution containing 2% Bovine serum albumin (BSA) to eliminate non-specifically binding.
PVDF membrane was probed with primary antibody diluted with by the recommended amount according the manufacture in 2% BSA-TBS-T buffer solution at 4° C. for 16 to 18 hours. After the interaction completed, TBS-T buffer solution was used to rinse out the non-specifically bound primary antibody. TBS-T buffer solution was changed every 10 minutes for three times in about 30 minutes. Then, specific secondary antibody was added for interaction at room temperature for one hour. TBS-T buffer solution was used to rinse out the non-specifically bound secondary antibody. TBS-T buffer solution was changed every 10 minutes for six times in about 60 minutes. ECL System (Enhanced chemiluminescence system) was used and film was exposed to light and developed. Finally qualitative analysis was performed. […] Protein related to cell cycle regulation includes G2/M checkpoint regulators, Cyclin B1 and Cdc-25C.

O=C(OC1O[C@@H]2COC(=O)c3cc(O)c(O)c(O)c3-c3c(cc(O)c(O)c3O)C(=O)O[C@H]2[C@H](OC(=O)c2cc(O)c(O)c(O)c2)[C@H]1OC(=O)c1cc(O)c(O)c(O)c1)c1cc(O)c(O)c(O)c1 (some centres unmarked) [Tellimagrandin II]
MIC (MRSA 18271): 128 µg/mL | MIC (MRSA 18631): 128 µg/mL | MIC (MRSA 19615): 128 µg/mL | DPPH free-radical scavenging activity (DPPH scavenging assay; 20 μg/mL, +FeCl2 (50 μM)): 56.61 ± 4.05% | DPPH free-radical scavenging activity (DPPH scavenging assay; 20 μg/mL, −FeCl2): 80.52 ± 0.4% | DPPH free-radical scavenging activity (DPPH scavenging assay; 40 μg/mL, +FeCl2 (50 μM)): 57.43 ± 2.49% | DPPH free-radical scavenging activity (DPPH scavenging assay; 40 μg/mL, −FeCl2): 79.47 ± 0.2% | Cell viability [1]: not affected significant | expression of PGE2 [2]: significantly reduced the expression of PGE2 | Caspase-8 (inactive form) (K-562 cells): decreases | Caspase-9, Caspase-3, and Caspase-7 (K-562 cells): activation | Cyclin B1 and Cdc-25C (non-phosphorylated) activity (K-562 cells): decreased | PARP (K-562 cells): ultimate activation | protein of anti-apoptosis Bcl-2 (K-562 cells): decrease
